Residue numbers refer to the chain shown, from its start.
What was measured:
Settings in all cases: at 1 µM
[1] = target: Receptor-type tyrosine-protein kinase FLT3 (Homo sapiens) (UniProt P36888); experiment: (§1) Selectivity interaction (KinomeScan (DiscoverX)) EUB0000702a FLT3
[2] = system: Receptor-type tyrosine-protein kinase FLT3 (Homo sapiens), P36888 [UNDEFINED MUTATION]; experiment: as §1
[3] = system: T1, Receptor-type tyrosine-protein kinase FLT3 (Homo sapiens), P36888 [N841I]; experiment: as §1
T1 sequence (whole entry): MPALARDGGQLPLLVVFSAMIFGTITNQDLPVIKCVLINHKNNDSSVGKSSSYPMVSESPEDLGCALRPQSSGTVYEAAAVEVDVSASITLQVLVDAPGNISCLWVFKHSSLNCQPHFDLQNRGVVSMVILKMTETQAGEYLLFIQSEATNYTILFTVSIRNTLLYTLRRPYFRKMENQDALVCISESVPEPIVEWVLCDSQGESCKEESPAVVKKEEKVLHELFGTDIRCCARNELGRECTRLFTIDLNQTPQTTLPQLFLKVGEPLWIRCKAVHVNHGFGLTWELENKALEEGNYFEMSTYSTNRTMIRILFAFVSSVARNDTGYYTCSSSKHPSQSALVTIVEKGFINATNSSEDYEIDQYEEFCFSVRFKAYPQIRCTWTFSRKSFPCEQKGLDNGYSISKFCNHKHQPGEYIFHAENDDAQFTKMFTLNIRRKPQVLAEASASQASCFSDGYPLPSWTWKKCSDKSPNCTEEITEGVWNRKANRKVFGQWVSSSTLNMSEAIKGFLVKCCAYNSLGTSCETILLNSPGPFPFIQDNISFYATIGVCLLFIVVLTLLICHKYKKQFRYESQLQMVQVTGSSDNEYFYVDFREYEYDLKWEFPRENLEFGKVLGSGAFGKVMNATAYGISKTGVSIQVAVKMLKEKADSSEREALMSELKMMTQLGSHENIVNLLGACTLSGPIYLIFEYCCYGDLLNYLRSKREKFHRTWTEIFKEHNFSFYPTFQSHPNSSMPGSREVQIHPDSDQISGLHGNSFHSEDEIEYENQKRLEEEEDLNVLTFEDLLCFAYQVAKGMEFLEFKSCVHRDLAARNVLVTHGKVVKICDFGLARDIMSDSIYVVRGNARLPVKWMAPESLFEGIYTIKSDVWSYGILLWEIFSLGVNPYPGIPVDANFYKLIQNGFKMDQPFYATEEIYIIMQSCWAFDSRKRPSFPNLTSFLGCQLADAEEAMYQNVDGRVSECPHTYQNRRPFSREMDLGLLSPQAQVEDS

[4] = system: T2, Receptor-type tyrosine-protein kinase FLT3 (Homo sapiens), P36888 [D835Y]; experiment: as §1
T2 sequence (whole entry): T1 sequence (whole entry) with D835Y, I841N

[5] = system: T3, Receptor-type tyrosine-protein kinase FLT3 (Homo sapiens), P36888 [D835V]; experiment: as §1
T3 sequence (whole entry): T1 sequence (whole entry) with D835V, I841N

- % of control [1]: 5.5%
- % of control [2]: 0.7%
- % of control [3]: 0%
- % of control [4]: 2%
- % of control [5]: 1.5%
SMILES: CN(c1ccnc(CNc2nc(Nc3ccc4c(c3)CC(=O)N4)ncc2C(F)(F)F)n1)S(C)(=O)=O [PF-00911705]
